According to PubChem BioAssay (NCI):
“And” between values parts separate entries of the source, which are not always exact repeats. Equal entries are not always repeated.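 Briefly, cells in 96-well plates were exposed to five compound concentrations for 48 h, and endpoints were estimated by linear interpolation. GI50 marks 50% less growth. TGI: total growth inhibition.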

Columns and labels:
Assay in all cases: inhibition of tumour cell growth, NCI panel, 48 h
IGROV1 ovarian = tested on: IGROV1 ovarian
MCF7 breast = tested on: MCF7 breast
UO-31 renal = tested on: UO-31 renal
PC-3 prostate = tested on: PC-3 prostate
SF-539 CNS = tested on: SF-539 CNS
786-0 renal = tested on: 786-0 renal
SK-MEL-2 melanoma = tested on: SK-MEL-2 melanoma
M14 melanoma = tested on: M14 melanoma
HCT-116 colon = tested on: HCT-116 colon
K-562 leukemia = tested on: K-562 leukemia

Structure (SMILES)	GI50 (IGROV1 ovarian) [µM]	TGI (IGROV1 ovarian) [µM]	GI50 (MCF7 breast) [µM]	TGI (MCF7 breast) [µM]	GI50 (UO-31 renal)	TGI (UO-31 renal) [µM]	GI50 (PC-3 prostate) [µM]	TGI (PC-3 prostate) [µM]	GI50 (SF-539 CNS) [µM]	TGI (SF-539 CNS) [µM]	GI50 (786-0 renal) [µM]	TGI (786-0 renal) [µM]	GI50 (SK-MEL-2 melanoma) [µM]	TGI (SK-MEL-2 melanoma) [µM]	GI50 (M14 melanoma) [µM]	TGI (M14 melanoma) [µM]	GI50 (HCT-116 colon) [µM]	TGI (HCT-116 colon) [µM]	TGI (K-562 leukemia) [µM]	GI50 (K-562 leukemia) [µM]
CCCCC#CC#Cc1cccc(=O)o1	30.7	75.8	26.1	> 100	21.9 µM	46.2	31	> 100	24.6	51.6	16.6	34.6	38.6	69.3	21.7	40.6	14.8	28.3	–	–
Cc1cc(C)c(S(=O)(=O)ONC(=O)OC(C)(C)C)c(C)c1	–	> 100	–	–	–	> 100	–	–	–	> 100	–	> 100	–	> 100	–	> 100	–	> 100	> 100	–
CC(=O)OCC1O[C@@H]([S-])C(OC(C)=O)[C@H](OC(C)=O)[C@@H]1OC(C)=O.[Au+].c1ccc(CN2[CH-]N(Cc3ccccc3)C(c3ccccc3)=C2c2ccccc2)cc1	–	–	–	–	1.95 µM	4.47	1.83	3.7	1.85	3.56	1.69	3.39	1.74	3.43	1.69	3.58	1.64	3.24	–	–
NC(=O)/C=C/NC(=O)/C=N\O	–	> 100	–	> 100	–	> 100	–	> 100	–	> 100	–	> 100	–	–	–	> 100	–	> 100	> 100	–
CCC[CH2][Sn]([CH2]CCC)([O]C(=O)C1CCC(=O)N1)[O]C(=O)C1CCC(=O)N1 (stereo not given)	1.1	2.48	–	–	0.711 µM	1.98	–	–	0.185	0.414	0.196	0.409	0.181	0.367	0.2	0.456	0.786	2.04	0.565	0.138
c1ccc(COCC2OC3c4ccccc4COC3C2OCc2ccccc2)cc1 (stereo not given)	–	> 100	–	–	–	> 100	–	–	–	> 100	–	> 100	–	> 100	–	> 100	–	> 100	> 100	–
COC(OC)[C@@H](C)[C@H](O)[C@](C)(O)C1OC(C)(C)OC(C(C)C=C(C)C)C1C (stereo not given in full)	–	> 100	–	–	–	> 100	–	–	–	> 100	–	> 100	–	> 100	–	> 100	–	> 100	> 100	–
CC(=O)[O-].O=C([CH-]C(=O)c1ccccc1)c1ccccc1.O=C([CH-]C(=O)c1ccccc1)c1ccccc1.[Y+3]	6.94	35.8	–	–	3.84 µM	9.66	–	–	8.67	37	3.9	18	2.85	9.69	5.34	18.9	4.97	19.3	> 100	3.45
OC(c1ccccn1)C1CNc2ccccc21 (stereo not given)	–	> 100	–	–	–	> 100	–	–	–	> 100	–	> 100	–	> 100	–	> 100	–	> 100	> 100	–
O=C1C(Cl)=C(Nc2cccc(O)c2)C(=O)N1c1ccccc1Cl	–	–	29.8	> 100	32.5 µM	> 100	10.7	31.2	–	–	39	> 100	25.5	61.6	21.5	> 100	20	70.9	63.2	25
Cc1ccc(C)c(NC(=O)CCc2nc(=S)[nH][nH]2)c1	–	> 100	–	–	–	> 100	–	–	–	> 100	–	> 100	–	> 100	–	> 100	–	> 100	> 100	–
N#Cc1ccc(C(c2ccc(C#N)cc2)n2cncn2)cc1	47.5	–	> 5000	> 5000	60.8 µM and 119 µM	> 5000	> 5000	> 5000	1250	> 5000	> 5000	> 5000	–	–	> 5000	> 5000	–	–	> 5000	3800
CCC1CCc2nc3sc(C(=O)Nc4ccccc4C)c(N)c3cc2C1 (stereo not given)	> 100	> 100	0.287	> 100	0.998 µM	> 100	0.622	> 100	0.398	> 100	0.371	> 100	0.46	> 100	–	–	0.348	> 100	–	–
